Assay results published in US20090012103A1, “SUBSTITUTED HETEROCYCLIC COMPOUNDS” (priority 2007, published 2009).

Molecular target: wild-type human cardiac sodium channel, hNav1.5 (Homo sapiens, UniProt Q14524)
Experiment: Late INa screening assay (late sodium current, PatchXpress whole cell patch clamp)
Assay type: cell-based
Conditions: compound at 10 μM; read-out: Late INa % blk

wild-type human cardiac sodium channel, hNav1.5, sequence (Q14524 whole entry): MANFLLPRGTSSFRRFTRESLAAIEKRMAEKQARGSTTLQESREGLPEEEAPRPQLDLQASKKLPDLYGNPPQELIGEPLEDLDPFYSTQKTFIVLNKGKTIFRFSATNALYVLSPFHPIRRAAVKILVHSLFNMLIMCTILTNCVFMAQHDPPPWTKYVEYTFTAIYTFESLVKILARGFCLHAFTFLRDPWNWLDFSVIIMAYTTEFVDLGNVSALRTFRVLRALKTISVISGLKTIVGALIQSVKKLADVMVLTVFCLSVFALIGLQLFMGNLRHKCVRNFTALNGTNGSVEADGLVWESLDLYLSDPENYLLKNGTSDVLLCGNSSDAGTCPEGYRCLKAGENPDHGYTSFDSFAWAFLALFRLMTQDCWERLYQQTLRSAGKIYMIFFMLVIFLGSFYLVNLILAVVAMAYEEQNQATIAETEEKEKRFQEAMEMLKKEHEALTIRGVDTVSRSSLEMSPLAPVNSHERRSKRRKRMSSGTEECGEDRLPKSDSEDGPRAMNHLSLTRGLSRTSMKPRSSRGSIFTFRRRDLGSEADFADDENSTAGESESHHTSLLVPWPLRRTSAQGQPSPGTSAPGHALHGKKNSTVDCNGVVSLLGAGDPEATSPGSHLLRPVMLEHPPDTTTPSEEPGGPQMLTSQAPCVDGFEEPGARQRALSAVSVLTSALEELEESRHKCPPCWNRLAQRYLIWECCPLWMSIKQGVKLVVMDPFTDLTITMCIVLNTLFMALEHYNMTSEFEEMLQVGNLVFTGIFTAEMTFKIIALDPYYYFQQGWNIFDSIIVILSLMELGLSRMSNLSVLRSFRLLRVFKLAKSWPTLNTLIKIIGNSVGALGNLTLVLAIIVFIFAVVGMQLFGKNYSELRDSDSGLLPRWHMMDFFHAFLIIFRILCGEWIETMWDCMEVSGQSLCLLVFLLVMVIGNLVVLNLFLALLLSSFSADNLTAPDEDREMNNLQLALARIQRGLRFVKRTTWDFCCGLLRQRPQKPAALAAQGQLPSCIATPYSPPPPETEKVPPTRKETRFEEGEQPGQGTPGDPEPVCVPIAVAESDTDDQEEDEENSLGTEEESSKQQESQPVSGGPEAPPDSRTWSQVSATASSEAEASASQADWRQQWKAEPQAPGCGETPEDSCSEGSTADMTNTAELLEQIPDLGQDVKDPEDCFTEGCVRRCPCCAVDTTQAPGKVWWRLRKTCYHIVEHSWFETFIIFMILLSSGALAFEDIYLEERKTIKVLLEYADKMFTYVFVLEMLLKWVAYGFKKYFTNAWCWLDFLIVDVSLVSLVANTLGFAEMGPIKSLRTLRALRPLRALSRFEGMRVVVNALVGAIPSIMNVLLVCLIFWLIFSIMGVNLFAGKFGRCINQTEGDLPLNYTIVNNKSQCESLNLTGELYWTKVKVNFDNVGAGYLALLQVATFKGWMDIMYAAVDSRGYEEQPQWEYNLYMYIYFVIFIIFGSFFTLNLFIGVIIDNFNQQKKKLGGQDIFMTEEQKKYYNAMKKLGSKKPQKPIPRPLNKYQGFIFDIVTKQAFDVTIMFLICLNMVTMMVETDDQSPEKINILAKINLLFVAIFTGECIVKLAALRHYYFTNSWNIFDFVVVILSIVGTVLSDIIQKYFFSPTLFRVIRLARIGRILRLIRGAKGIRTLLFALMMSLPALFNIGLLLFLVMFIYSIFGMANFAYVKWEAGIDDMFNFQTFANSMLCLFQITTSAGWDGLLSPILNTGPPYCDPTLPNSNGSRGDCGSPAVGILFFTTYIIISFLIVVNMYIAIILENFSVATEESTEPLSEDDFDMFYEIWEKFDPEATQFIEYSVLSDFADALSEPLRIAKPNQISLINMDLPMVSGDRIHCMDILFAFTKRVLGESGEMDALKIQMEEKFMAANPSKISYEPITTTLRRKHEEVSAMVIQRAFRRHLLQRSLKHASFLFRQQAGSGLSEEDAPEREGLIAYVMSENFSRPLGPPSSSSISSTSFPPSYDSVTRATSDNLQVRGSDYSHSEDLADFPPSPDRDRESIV

CCOC(=O)C1=C(C)NC(C)=C(C(=O)OCC)C1c1ccc([N+](=O)[O-])cc1OC [PT-433, diethyl 4-(2-methoxy-4-nitrophenyl)-2,6-dimethyl-1,4-dihydropyridine-3,5-dicarboxylate]
inhibition at 10 µM: 30.3%

CCOC(=O)C1=C(C)NC(C)=C(C(=O)OCC)C1c1ccccc1-c1cccc(C#N)c1 [PT-435, diethyl 4-(3′-cyanobiphenyl-2-yl)-2,6-dimethyl-1,4-dihydropyridine-3,5-dicarboxylate]
inhibition at 10 µM: 19.4%

CCOC(=O)C1=C(C)NC(C)=C(C(=O)OCC)C1c1ccc(N(C)C)cc1OC [PT-436, diethyl 4-(4-(dimethylamino)-2-methoxyphenyl)-2,6-dimethyl-1,4-dihydropyridine-3,5-dicarboxylate]
inhibition at 10 µM: 18.7%

CCOC(=O)C1=C(C)NC(C)=C(C(=O)OCC)C1c1ccc(N(C)C)cc1[N+](=O)[O-] [PT-437, diethyl 4-(4-(dimethylamino)-2-nitrophenyl)-2,6-dimethyl-1,4-dihydropyridine-3,5-dicarboxylate]
inhibition at 10 µM: 43.1%

CCOC(=O)C1=C(C)NC(C)=C(C(=O)OCC)C1c1ccccc1-c1ccccc1 [PT-438, diethyl 4-(biphenyl-2-yl)-2,6-dimethyl-1,4-dihydropyridine-3,5-dicarboxylate]
inhibition at 10 µM: 20.9%

CCOC(=O)C1=C(C)NC(C)=C(C(=O)OCC)C1c1cccc(-c2ccccc2)c1 [PT-439, diethyl 4-(biphenyl-3-yl)-2,6-dimethyl-1,4-dihydropyridine-3,5-dicarboxylate]
inhibition at 10 µM: 56.1%

CCOC(=O)C1=C(C)Nc2[nH]nc(C)c2C1c1cccs1 (stereo not shown) [PT-443, ethyl 3,6-dimethyl-4-(thiophen-2-yl)-4,7-dihydro-1H-pyrazolo[3,4-b]pyridine-5-carboxylate]
inhibition at 10 µM: 20%

CCOC(=O)C1=C(C)N(Cc2nnn[nH]2)c2nnnn2C1c1cccc2ccccc12 (stereo not shown) [PT-444, ethyl 4-((1H-tetrazol-5-yl)methyl)-5-methyl-7-(naphthalen-1-yl)-4,7-dihydrotetrazolo[1,5-a]pyrimidine-6-carboxylate]
inhibition at 10 µM: 9.1%

CCOC(=O)C1=C(C)Nc2[nH]ncc2C1c1c(OC)cccc1OC (stereo not shown) [PT-446, ethyl 4-(2,6-dimethoxyphenyl)-6-methyl-4,7-dihydro-1H-pyrazolo[3,4-b]pyridine-5-carboxylate]
inhibition at 10 µM: 7%

CCOC(=O)C1=C(C)Nc2[nH]ncc2C1c1c(Br)sc2ccccc12 (stereo not shown) [PT-447, ethyl 4-(2-bromobenzo[b]thiophen-3-yl)-6-methyl-4,7-dihydro-1H-pyrazolo[3,4-b]pyridine-5-carboxylate]
inhibition at 10 µM: 77.4%

CCOC(=O)CN1C(C)=C(C(=O)OCC)C(c2cccc3ccccc23)n2nnnc21 (stereo not shown) [PT-449, ethyl 4-(2-ethoxy-2-oxoethyl)-5-methyl-7-(naphthalen-1-yl)-4,7-dihydrotetrazolo[1,5-a]pyrimidine-6-carboxylate]
inhibition at 10 µM: 47.6%

CCOC(=O)c1c(C)nc2[nH]ncc2c1-c1ccccc1-c1cccc(C(C)=O)c1 [PT-450, ethyl 4-(3′-acetylbiphenyl-2-yl)-6-methyl-1H-pyrazolo[3,4-b]pyridine-5-carboxylate]
inhibition at 10 µM: 7.3%

CCOC(=O)C1=C(C)Nc2[nH]ncc2C1c1ccccc1-c1cccc(C(C)=O)c1 (stereo not shown) [PT-451, ethyl 4-(3′-acetylbiphenyl-2-yl)-6-methyl-4,7-dihydro-1H-pyrazolo[3,4-b]pyridine-5-carboxylate]
inhibition at 10 µM: 18.4%

CCOC(=O)c1ccc(N2CCN(C(=O)C3=C(C)NC4=C(C(=O)CCC4)C3c3cccc4ccccc34)CC2)cc1 (stereo not shown) [PT-452, ethyl 4-(4-(2-methyl-4-(naphthalen-1-yl)-5-oxo-1,4,5,6,7,8-hexahydroquinoline-3-carbonyl)piperazin-1-yl)benzoate]
inhibition at 10 µM: 5.9%

CCOC(=O)C1=C(C)Nc2[nH]ncc2C1c1ccc(N(C)C)c2ccccc12 (stereo not shown) [PT-454, ethyl 4-(4-(dimethylamino)naphthalen-1-yl)-6-methyl-4,7-dihydro-1H-pyrazolo[3,4-b]pyridine-5-carboxylate]
inhibition at 10 µM: 30.2%

CCOC(=O)C1=C(C)NC2=C(C(=O)CCC2)C1c1ccccc1-c1ccc(C(N)=O)cc1 (stereo not shown) [PT-455, ethyl 4-(4′-carbamoylbiphenyl-2-yl)-2-methyl-5-oxo-1,4,5,6,7,8-hexahydroquinoline-3-carboxylate]
inhibition at 10 µM: 9%

CCOC(=O)C1=C(C)N(CC#N)c2nnnn2C1c1cccc2ccccc12 (stereo not shown) [PT-456, ethyl 4-(cyanomethyl)-5-methyl-7-(naphthalen-1-yl)-4,7-dihydrotetrazolo[1,5-a]pyrimidine-6-carboxylate]
inhibition at 10 µM: 2.7%

CCOC(=O)C1=C(C)Nc2nnnn2C1c1ccccc1Oc1ccc(S(N)(=O)=O)cc1 (stereo not shown) [PT-458, ethyl 5-methyl-7-(2-(4-sulfamoylphenoxy)phenyl)-4,7-dihydrotetrazolo[1,5-a]pyrimidine-6-carboxylate]
inhibition at 10 µM: 19%

CCOC(=O)C1=C(C)Nc2nnnn2C1c1ccccc1-c1cccnc1 (stereo not shown) [PT-459, ethyl 5-methyl-7-(2-(pyridin-3-yl)phenyl)-4,7-dihydrotetrazolo[1,5-a]pyrimidine-6-carboxylate]
inhibition at 10 µM: 10.3%

CCOC(=O)C1=C(C)Nc2nnnn2C1c1ccccc1-c1ccncc1 (stereo not shown) [PT-460, ethyl 5-methyl-7-(2-(pyridin-4-yl)phenyl)-4,7-dihydrotetrazolo[1,5-a]pyrimidine-6-carboxylate]
inhibition at 10 µM: 22.1%

CCOC(=O)C1=C(C)Nc2nnnn2C1c1ccccc1-c1cncnc1 (stereo not shown) [PT-461, ethyl 5-methyl-7-(2-(pyrimidin-5-yl)phenyl)-4,7-dihydrotetrazolo[1,5-a]pyrimidine-6-carboxylate]
inhibition at 10 µM: 6.2%

CCOC(=O)C1=C(C)Nc2nnnn2C1c1ccccc1-c1cccs1 (stereo not shown) [PT-462, ethyl 5-methyl-7-(2-(thiophen-2-yl)phenyl)-4,7-dihydrotetrazolo[1,5-a]pyrimidine-6-carboxylate]
inhibition at 10 µM: 63%

CCOC(=O)C1=C(C)Nc2ccnn2C1c1cccc(Oc2ccccc2)c1 (stereo not shown) [PT-463, ethyl 5-methyl-7-(3-phenoxyphenyl)-4,7-dihydropyrazolo[1,5-a]pyrimidine-6-carboxylate]
inhibition at 10 µM: 42.3%

CCOC(=O)C1=C(C(C)=O)C(c2cccc3ccccc23)n2nnnc2N1 (stereo not shown) [PT-465, ethyl 6-acetyl-7-(naphthalen-1-yl)-4,7-dihydrotetrazolo[1,5-a]pyrimidine-5-carboxylate]
inhibition at 10 µM: 10.5%

CCOC(=O)C1=C(C)Nc2[nH]ncc2C1c1cccc(Oc2ccccc2)c1 (stereo not shown) [PT-470, ethyl 6-methyl-4-(3-phenoxyphenyl)-4,7-dihydro-1H-pyrazolo[3,4-b]pyridine-5-carboxylate]
inhibition at 10 µM: 26%

CCOC(=O)C1=C(C)Nc2[nH]ncc2C1c1ccccc1-c1ccc(NS(C)(=O)=O)cc1 (stereo not shown) [PT-471, ethyl 6-methyl-4-(4′-(methylsulfonamido)biphenyl-2-yl)-4,7-dihydro-1H-pyrazolo[3,4-b]pyridine-5-carboxylate]
inhibition at 10 µM: 30%

CCOC(=O)c1c(C)nc2[nH]ncc2c1-c1cccc2ccccc12 [PT-472, ethyl 6-methyl-4-(naphthalen-1-yl)-1H-pyrazolo[3,4-b]pyridine-5-carboxylate]
inhibition at 10 µM: 22.6%

CCOC(=O)C1=C(C)Nc2[nH]ncc2C1c1cccs1 (stereo not shown) [PT-473, ethyl 6-methyl-4-(thiophen-2-yl)-4,7-dihydro-1H-pyrazolo[3,4-b]pyridine-5-carboxylate]
inhibition at 10 µM: 9.4%
